Data taken from US4305951A, “Novel amino derivatives of 5-(2-hydroxystyryl)-isoxazole, their preparation and therapeutic formulations containing these compounds” (BASF Aktiengesellschaft, priority 1979, dated 1981).
Entries after “also recorded” stand apart in the source; their conditions may differ.

Assays:
in vivo = settings: for LD50: ip
Description: Intraperitoneal administration.

[1] = test system: blood pressure in the carotid artery; test: Hypotensive action on narcotized rats; assay type: in vivo, rat (Sprague-Dawley); settings: for ED20: Rattus norvegicus, read-out: ED 20% (dose which lowers the mean carotid blood pressure by 20%)
Protocol: To test the hypotensive action, the compounds are administered intravenously to male Sprague-Dawley rats (weight: 230-280 g) under urethane narcosis (1.78 g/kg administered intraperitineally).
The blood pressure in the carotid artery is measured by means of a Statham transducer. The ED 20% is determined as the dose which lowers the mean carotid pressure by 20%.
^(2) Rats. Urethane narcosis. Intravenous administration. ED 20% =
dose [in mg/kg] which lowers the blood pressure by 20%.

[2] = test system: isoproterenol-induced tachycardia; test: β-Sympatholytic action: inhibition of isoproterenol-induced tachycardia in pithed rats; settings: for ED50: Rattus norvegicus, read-out: ED 50% (dose which inhibits the isoproterenol-induced increase in pulse rate by 50%)
[3] = urethane narcosis, intravenous administration

| Structure (SMILES) | Q: lethal dose as multiple of the β-sympatholytically effective dose (in vivo; mouse, in vivo) | selectivity ratio (in vivo; mouse, in vivo) | LD50 (in vivo; mouse, in vivo) [mg/kg] | ED20 [1, 3] [mg/kg] | ED50 ([2]; iv) [mg/kg] | β-sympatholytic activity compared with propranolol (in words) ([2]; pithed rats, intravenous) | R.A. = relative activity (β-sympatholytic) ([2]; rat, in vivo, iv) | Q: lethal dose as multiple of the β-sympatholytically effective dose (in vivo; LD 50 mice i.p. / ED 50% pithed rats i.v.) | ED 20% (dose which lowers the mean carotid blood pressure by 20%) [1, 3] [mg/kg] | increase of blood pressure ([1]; 2.15 mg/kg intravenous, urethane narcosis) [%] | lowering of blood pressure ([1]; 4.64 mg/kg intravenous, urethane narcosis, average) [%] | animals that died ([1]; 10 mg/kg intravenous, urethane narcosis) | hypotensive action (in words) ([1]; acute test, intravenous) | R.A. = relative activity (β-sympatholytic) ([2]; Propranolol = 1.00, pithed rats, intravenous) |
| --- | --- | --- | --- | --- | --- | --- | --- | --- | --- | --- | --- | --- | --- | --- |
| Cc1cc(/C=C/c2ccccc2OCC(O)CNC(C)CCc2ccc(O)cc2)on1 (centres unmarked) [Example 3, 3-methyl-5-[2-[2-hydroxy-3-(3-(4-hydroxyphenyl)-1-methylpropylamino)-propoxy]-styryl]-isoxazole] | 24,600 | 24600 | 261 | 0.49 | 0.0106 | corresponds approximately to that of propranolol | 1.20 |  |  |  |  |  |  |  |
| COc1ccc(CCNCC(O)COc2ccccc2/C=C/c2cc(C)no2)cc1OC (centres unmarked) [Example 4, 3-methyl-5-[2-[2-hydroxy-3-(2-(3,4-dimethoxyphenyl)-1-ethylamino)-propoxy]-styryl]-isoxazole] |  | 29900 | 642 | 0.7 | 0.0215 | corresponds approximately to that of propranolol | 0.59 | 29,900 | 0.70 |  |  |  |  |  |
| CC(C)NCC(O)COc1cccc2ccccc12 (centres unmarked) [Propranolol, propranolol] |  |  |  |  |  |  |  |  |  | 11 | 36 | 2 out of 6 | does not have a hypotensive effect in acute test conditions; also recorded: up to doses of 2.15 mg/kg, does not lower the blood pressure | 1.00 |
